Experimental data: patent US20130145496A1, “FLAVIN ENZYME HAVING FLAVONOL 8-HYDROXYLASE ACTIVITY AND USE THEREOF” (SUNTORY HOLDINGS LIMITED, priority 2010, published 2013)

How the values were obtained:
[1] = tested on: flavonol 8-hydroxylase (MFB088 crude enzyme); experiment: Hydroxylase activity of MFB088 crude enzyme on flavonoid substrates (UPLC-TOF MS, ion trap MS/MS); type: biochemical, Lotus japonicus; conditions: 0.048 nmol substrate, FAD, NADPH, pH 7.0, 30° C., 15 minutes; product detected by UPLC-TOF MS / ion trap MS/MS; not detected in negative control
Procedure: The yeast cells were centrifuged and recovered, and then lysed using glass beads. The lysate was centrifuged at 8000×g for 10 minutes. The supernatant was recovered and further centrifuged at 15000×g for 10 minutes to give the crude enzyme fraction of the protein encoded by MFB088 (hereinafter referred to as the MFB088 crude enzyme).
MFB088 crude enzyme solution, 2 μl (containing 2.5 μg of proteins); 0.1 M KH2PO4/K2HPO4 solution (containing 0.4% ascorbic acid: pH 7.0), 88 μl; 0.048 nmol eriodictyol/5 […] of H2O; 0.001 nmol FAD and 0.48 nmol NADPH/5 μl of H2O.
NADPH was added to start the reaction. After the reaction proceeded at 30° C. for 15 minutes, 10 μl of glacial acetic acid was added to stop the reaction. An […] was further added to extract the phenol compound twice (the added […]: 70 μl and 50 μl). The organic layer was recovered and used as a sample (hereinafter referred to as “MFB088 crude enzyme reaction product”). The components were analyzed by UPLC-TOF MS and ion trap MS/MS.
For analysis of the MFB088 crude enzyme reaction product, Waters Acquity UPLC™ system (Waters Corporation) equipped with time-of-flight mass spectrometer LCT Premier (Waters Corporation, Massachusetts, USA) was used. The analysis was performed using an ACQUITY UPLC™ BEH C18 column (particle diameter of 1.7 μm, column size of 2.1 mm I.D.×100 mm, Waters Corporation) under the conditions of flow rate of 0.3 ml/min and column temperature at 40° C. Using solvent A (0.1% formic acid-acetonitrile) and solvent B (0.1% formic acid aqueous solution), the reaction product was eluted by linear gradient from 70% B in 0 minute to 70% A in 20 minutes. The reaction product was detected by the time-of-flight mass spectrometer in the cation detection mode set forth below: capillary voltage of 2500 V, sample cone of 100 V, desolvation temperature at 250° C., source temperature at 120° C., and nitrogen gas flow of 6001/hour.
The components of the MFB088 crude enzyme reaction product was analyzed by ion trap MS/MS. High performance liquid chromatography (HPLC) system Agilent 1200 series (Agilent Technologies, California, USA) equipped with ion trap mass spectrometer LTQ XL (Thermo Fisher Scientific, Massachusetts, USA) was used for the MS/MS analysis. HPLC was performed using a TSKgel ODS-80™ column (particle diameter of 5 μm, column size of 4.6 mm I.D.×150 mm, TOSOH, Japan) under the conditions of flow rate of 0.5 ml/min and column temperature at 40° C. Using solvent A (0.1% formic acid-acetonitrile) and solvent B (0.1% formic acid aqueous solution), the reaction product was eluted by linear gradient from 70% B in 0 minute to 85% A in 30 minutes. The reaction product was ionized by electrospray ionization method and cations were detected under the following conditions: spray voltage of 4.0 kV, capillary temperature at 300° C., nitrogen sheath of 40 units, and auxiliary gas of 15 units. In the MS/MS analysis of the reaction product [M+H]+, collision-induced dissociation (CID) was performed under the conditions below to detect the fragment peak: normalized collision energy of 35, activation Q of 0.25 and activation time for 30 ms.
MFB088 crude enzyme solution, 2 μl (containing 2.5 μg of proteins); 0.1 M KH2PO4/K2HPO4 solution (containing 0.4% ascorbic acid: pH 7.0), 88 μl; 0.048 nmoleriodictyol/5 μl of H2O; 0.001 nmol FAD and 0.48 nmol NADPH/5 μl of H2O.
MFB088 crude enzyme solution, 2 μl (containing 2.5 μg of protein); 0.1 M KH2PO4/K2HPO4 solution (containing 0.4% ascorbic acid: pH 7.0), 88 μl; 0.048 nmol luteolin/5 μl of H2O; 0.001 nmol FAD and 0.48 nmol NADPH/5 μl of H2O.
The reactivity requiring kaempferol and apigenin as substrates was analyzed. The reaction product was recovered in a manner similar to EXAMPLES described above and the components were analyzed by UPLC-TOF MS.

[2] = tested on: nuclear factor-κB (NF-κB); conditions: leading to cell apoptosis potentiation; cited from earlier work
[3] = tested on: low density lipoprotein receptor (LDLR); conditions: through activation of extracellular signal-regulated kinase (ERK); cited from earlier work

Row | SMILES | hydroxylation of substrate by the MFB088 crude enzyme [1] | effect on activation of NF-κB [2] | effect on LDLR [3]
1 | O=c1c(O)c(-c2ccc(O)c(O)c2)oc2c(O[C@@H]3O[C@H](CO)[C@@H](O)[C@H](O)[C@H]3O)c(O)cc(O)c12 [gossypin, gossypetin-8-glucoside] |  | inhibits the activation of nuclear factor-κB (NF-κB) | upregulates low density lipoprotein receptor (LDLR)
2 | O=c1c(O)c(-c2ccc(O)cc2)oc2cc(O)cc(O)c12 [kaempferol] | hydroxyl group is attached to kaempferol at position 8 |  | 
3 | O=c1cc(-c2ccc(O)c(O)c2)oc2cc(O)cc(O)c12 [luteolin] | hydroxyl group is attached to luteolin |  | 
4 | O=c1c(O)c(-c2ccc(O)c(O)c2)oc2cc(O)cc(O)c12 [quercetin] | substituted with hydroxyl group at position 8 and converted into gossypetin |  | 

Further lines, with some results ahead:

Row | hydroxylation of substrate by the MFB088 crude enzyme [1] | SMILES | effect on activation of NF-κB [2] | effect on LDLR [3]
5 | hydroxyl group is attached to apigenin | O=c1cc(-c2ccc(O)cc2)oc2cc(O)cc(O)c12 [apigenin] |  | 
6 | two hydroxyl groups were attached | O=C1c2c(O)cc(O)cc2O[C@H](c2ccc(O)c(O)c2)[C@H]1O [dihydroquercetin] |  | 
7 | hydroxyl-substituted | O=C1C[C@@H](c2ccc(O)c(O)c2)Oc2cc(O)cc(O)c21 [eriodictyol] |  | 
8 | two hydroxyl groups were attached | O=C1C[C@@H](c2ccc(O)cc2)Oc2cc(O)cc(O)c21 [naringenin] |  | 
